Patent US20260097047A1, “Small molecule inhibitors of the ribosome biogenesis factor NVL2” (Board of Regents, The University of Texas System, priority 2023, published 2026)
Where two headings read alike, the source gives them in different places.

Tested on: HCT116 cells
Test: Cell viability assay (CellTiter-Glo, 72 hours) in HCT116 human colorectal cancer cells
Format: cell-based
Procedure, shortened: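 2,000 cells/well adhered overnight, then compound added by digital dispenser with DMSO normalized to 0.5%. Viability read after 72 h at 37 °C by ATP-based CellTiter-Glo luminescence. IC50 from ten-point curves baseline-corrected to vehicle, five-parameter asymmetric least-squares fit.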

[1] = Table 9, HCT116, 72 hours, read-out: Activity
[2] = cell viability assay, Table 10 analogs of scaffold drawing 45 defined by R2, R3, X/Y, W, read-out: Activity
[3] = Table 8, analogs of scaffold drawing 43 defined by R^2, R^3, X/Y, W, read-out: Activity (IC50 class, cell viability assay)

| Structure (SMILES) | IC50 [1] [µM] | IC50 [3] [µM] | further results |
| --- | --- | --- | --- |
| COC12CC(C(=O)Nc3ccc4c(c3)C(C#N)c3ccccc3C(=O)N4CC#CCF)(C1)C2 (stereo not shown) | < 0.5 | – | – |
| O=C(Nc1ccc2c(c1)Cc1ccccc1C(=O)N2CC#CC1CC1)C1CC2(CC(=NO)C2)C1 (stereo not shown) | < 0.5 | – | – |
| CC#CCN1C(=O)c2ccccc2Cc2cc(NC(=O)C34CC(O)(C3)C4)ccc21 | < 0.5 | – | – |
| CC#CCN1C(=O)c2ccccc2Cc2cc(NC(=O)C34CC(OC)(C3)C4)ccc21 | < 0.5 | – | – |
| CC#CCN1C(=O)c2ccccc2C(C#N)c2cc(NC(=O)C34CC(OC)(C3)C4)ccc21 (stereo not shown) | < 0.5 | – | – |
| CC#CCN1C(=O)c2ccccc2C(C)c2cc(NC(=O)C34CC(OC)(C3)C4)ccc21 (stereo not shown) | < 0.5 | – | – |
| CC#CCN1C(=O)c2ccccc2C(C)(O)c2cc(NC(=O)c3ccc(OC)nc3)ccc21 (stereo not shown) | < 0.5 | – | – |
| CC#CCN1C(=O)c2ccccc2C(C#N)c2cc(NC(=O)C3CC4(CC(=NO)C4)C3)ccc21 (stereo not shown) | < 0.5 | – | – |
| CC#CCN1C(=O)c2ccccc2Cc2cc(NC(=O)C3CC4(CC(=NO)C4)C3)ccc21 (stereo not shown) | < 0.5 | – | – |
| CC#CCN1C(=O)c2ccccc2C(C)(O)c2cc(NC(=O)C3CC4(CC(=NO)C4)C3)ccc21 (stereo not shown) | < 0.5 | – | – |
| O=C(Nc1ccc2c(c1)Cc1ccccc1C(=O)N2CC#CC1CC1)C1CC2(COC2)C1 | < 0.5 | – | – |
| CO[C@H]1C[C@H](C(=O)Nc2ccc3c(c2)C(C)(O)c2ccccc2C(=O)N3CC#CC2CC2)C1 (stereo partly shown) | < 0.5 | – | – |
| CC1c2ccccc2C(=O)N(CC#CC2CC2)c2ccc(NC(=O)[C@H]3C[C@H](O)C3)cc21 (stereo partly shown) | < 0.5 | – | – |
| COC12CC(C(=O)Nc3ccc4c(c3)C(C#N)c3ccccc3C(=O)N4CC#CC3CC3)(C1)C2 (stereo not shown) | < 0.5 | – | – |
| COC12CC(C(=O)Nc3cnc4c(c3)Sc3ccccc3C(=O)N4CC#CCF)(C1)C2 | – | – | IC50 [2]: < 0.5 µM |
| CC#CCN1C(=O)c2ccccc2Sc2cc(NC(=O)C34CC(OC)(C3)C4)ccc21 | – | – | IC50 [2]: < 0.5 µM |
| CC#CCN1C(=O)c2ccc(Cl)cc2Sc2cc(NC(=S)C34CC(OC)(C3)C4)ccc21 | – | – | IC50 [2]: < 0.5 µM |
| CC#CCN1C(=O)c2ccc(Cl)cc2Sc2cc(NC(=O)C3CC4(CC(O)C4)C3)ccc21 (stereo not shown) | – | – | IC50 [2]: < 0.5 µM |
| COCC1CC1C(=O)Nc1ccc2c(c1)C(C)(O)c1ccccc1C(=O)N2CC#CC1CC1 (racemic) | < 0.5 | – | – |
| COCC1CC1C(=O)Nc1cnc2c(c1)Sc1ccccc1C(=O)N2CC#CC1CC1 (racemic) [—CH2CC^cPr; trans-2-MeOCH2-cPr; CH/CH; N] | – | < 0.5 | – |
| CC1c2ccccc2C(=O)N(CC#CC2CC2)c2ccc(NC(=O)[C@@H]3C[C@H]3CO)cc21 (relative stereo) | < 0.5 | – | – |
| N#CC1c2ccccc2C(=O)N(CC#CC2CC2)c2ccc(NC(=O)[C@H]3C[C@@H]3CO)cc21 (relative stereo) | < 0.5 | – | – |
| CC1(O)c2ccccc2C(=O)N(CC#CC2CC2)c2ccc(NC(=O)[C@@H]3C[C@H]3CO)cc21 (relative stereo) | < 0.5 | – | – |
| CC#CCN1C(=O)c2cc(F)ccc2Sc2cc(NC(=O)[C@@H]3C[C@H]3CO)cnc21 (relative stereo) [—CH2CCMe; trans-2-HOCH2-cPr; CH/CF; N] | – | < 0.5 | – |
| O=C(Nc1cnc2c(c1)Sc1ccccc1C(=O)N2CC#CC1CC1)[C@@H]1C[C@H]1CO (relative stereo) [—CH2CC^cPr; trans-2-HOCH2-cPr; CH/CH; N] | – | < 0.5 | – |

The next lines start with results.

| IC50 [1] [µM] | IC50 [3] [µM] | Structure (SMILES) | further results |
| --- | --- | --- | --- |
| – | < 0.5 | O=C(Nc1ccc2c(c1)Sc1cc(Cl)ccc1C(=O)N2CC#CCl)C1CC1CO (racemic) [—CH2CCCl; trans-2-HOCH2-cPr; CCl/CH; CH] | – |
| – | < 0.5 | CC#CCN1C(=O)c2ccc(Cl)cc2Sc2cc(NC(=O)C3CC3CO)cnc21 (racemic) [—CH2CCMe; trans-2-HOCH2-cPr; CCI/CH; N] | – |
| – | < 0.5 | CC#CCN1C(=O)c2cc(F)ccc2Sc2cc(NC(=O)C3CC3C(=O)OC)ccc21 (racemic) [—CH2CCMe; trans-2-MeO2C-cPr; CH/CF; CH] | – |
| < 0.5 | – | CC#CCN1C(=O)c2ccccc2C(C)c2cc(NC(=O)[C@@H]3C[C@H]3C(=O)OC)ccc21 (relative stereo) | – |
| < 0.5 | – | CC#CCN1C(=O)c2ccccc2C(C)c2cc(NC(=O)[C@@H]3C[C@H]3COC)ccc21 (relative stereo) | – |
| – | < 0.5 | COC[C@@H]1C[C@H]1C(=O)Nc1ccc2c(c1)Sc1cc(Cl)ccc1C(=O)N2CC#CCl (relative stereo) [—CH2CCCl; trans-2-MeOCH2-cPr; CCl/CH; CH] | – |
| – | < 0.5 | C#CCN1C(=O)c2ccc(Cl)cc2Sc2cc(NC(=O)[C@@H]3C[C@H]3CO)ccc21 (relative stereo) [—CH2CCH; trans-2-HOCH2-cPr; CCI/CH; CH] | – |
| – | < 0.5 | C#CCN1C(=O)c2ccc(Cl)cc2Sc2cc(NC(=O)[C@@H]3C[C@H]3COC)ccc21 (relative stereo) [—CH2CCH; trans-2-MeOCH2-cPr; CCl/CH; CH] | – |
| – | < 0.5 | CC#CCN1C(=O)c2ccc(Cl)cc2Sc2cc(NC(=O)[C@@H]3C[C@H]3CO)ccc21 (relative stereo) [—CH2CCMe; trans-2-HOCH2-cPr; CCl/CH; CH] | – |
| – | < 0.5 | CC#CCN1C(=O)c2ccc(F)cc2Sc2cc(NC(=O)[C@@H]3C[C@H]3CO)cnc21 (relative stereo) [—CH2CCMe; trans-2-HOCH2-cPr; CF/CH; N] | – |
| – | < 0.5 | CC#CCN1C(=O)c2cc(F)ccc2Sc2cc(NC(=O)[C@@H]3C[C@H]3CO)ccc21 (relative stereo) [—CH2CCMe; trans-2-HOCH2-cPr; CH/CF; CH] | – |
| – | < 0.5 | CC#CCN1C(=O)c2ccc(Cl)cc2Sc2cc(NC(=O)[C@@H]3C[C@H]3C(=O)OC)ccc21 (relative stereo) [—CH2CCMe; trans-2-MeO2C-cPr; CCl/CH; CH] | – |
| – | < 0.5 | CC#CCN1C(=O)c2ccccc2Sc2cc(NC(=O)[C@@H]3C[C@H]3C(=O)OC)ccc21 (relative stereo) [—CH2CCMe; trans-2-MeO2C-cPr; CH/CH; CH] | – |
| – | < 0.5 | CC#CCN1C(=O)c2ccccc2Sc2cc(NC(=O)[C@@H]3C[C@H]3C(=O)OC)cnc21 (relative stereo) [—CH2CCMe; trans-2-MeO2C-cPr; CH/CH; N] | – |
| – | < 0.5 | CC#CCN1C(=O)c2ccc(C#N)cc2Sc2cc(NC(=O)[C@@H]3C[C@H]3COC)ccc21 (relative stereo) [—CH2CCMe; trans-2-MeOCH2-cPr; CCN/CH; CH] | – |
| – | < 0.5 | CC#CCN1C(=O)c2ccc(C#N)cc2Sc2cc(NC(=O)[C@@H]3C[C@H]3COC)cnc21 (relative stereo) [—CH2CCMe; trans-2-MeOCH2-cPr; CCN/CH; N] | – |
| – | < 0.5 | CC#CCN1C(=O)c2ccc(Cl)cc2Sc2cc(NC(=O)[C@H]3C[C@@H]3COC)ccc21 (relative stereo) [—CH2CCMe; trans-2-MeOCH2-cPr; CCl/CH; CH] | – |
| – | < 0.5 | CC#CCN1C(=O)c2ccc(Cl)cc2Sc2cc(NC(=O)[C@H]3C[C@@H]3COC)cnc21 (relative stereo) [—CH2CCMe; trans-2-MeOCH2-cPr; CCl/CH; N] | – |
| – | < 0.5 | CC#CCN1C(=O)c2ccc(F)cc2Sc2cc(NC(=O)[C@@H]3C[C@H]3COC)cnc21 (relative stereo) [—CH2CCMe; trans-2-MeOCH2-cPr; CF/CH; N] | – |
| – | < 0.5 | CC#CCN1C(=O)c2ccccc2Sc2cc(NC(=O)[C@@H]3C[C@H]3COC)cnc21 (relative stereo) [—CH2CCMe; trans-2-MeOCH2-cPr; CH/CH; N] | – |
| – | < 0.5 | COC(=O)[C@@H]1C[C@H]1C(=O)Nc1cnc2c(c1)Sc1ccccc1C(=O)N2CC#CC1CC1 (relative stereo) [—CH2CC^cPr; trans-2-MeO2C-cPr; CH/CH; N] | – |
